Key:
MMP-2 = molecular target: T1, MMP-2 (Homo sapiens, UniProt P08253); assay: In-vitro fluorescence assay of MMP-2 activity; assay type: biochemical; conditions: recombinant human MMP-2; read-out: MMP-2 IC50
T1 construct: purchased Oncogene Research Products (Calbiochem) PF023
T1 sequence (P08253 110-660): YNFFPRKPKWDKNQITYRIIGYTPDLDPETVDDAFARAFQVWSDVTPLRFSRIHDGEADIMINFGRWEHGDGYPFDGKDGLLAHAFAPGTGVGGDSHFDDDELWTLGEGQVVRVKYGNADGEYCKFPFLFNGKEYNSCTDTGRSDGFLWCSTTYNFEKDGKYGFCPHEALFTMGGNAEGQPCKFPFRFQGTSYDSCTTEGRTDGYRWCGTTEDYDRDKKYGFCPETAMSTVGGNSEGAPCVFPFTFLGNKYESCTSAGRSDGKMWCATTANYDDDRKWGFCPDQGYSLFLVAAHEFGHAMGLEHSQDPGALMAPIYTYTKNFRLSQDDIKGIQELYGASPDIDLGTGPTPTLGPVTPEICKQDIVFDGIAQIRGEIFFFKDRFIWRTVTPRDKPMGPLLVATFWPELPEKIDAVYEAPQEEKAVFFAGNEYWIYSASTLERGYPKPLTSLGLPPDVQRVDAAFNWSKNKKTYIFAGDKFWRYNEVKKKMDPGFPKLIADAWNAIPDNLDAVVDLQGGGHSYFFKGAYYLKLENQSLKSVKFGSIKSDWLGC
Text: A continuous assay was used in which the substrate is a synthetic peptide containing a fluorescent group (7-methoxycoumarin; Mca) which is quenched by energy transfer to a 2,4-dinitrophenyl group. […] The source of enzyme in the assay was the recombinant human MMP-2 (66 kDa) purchased from Oncogene Research Products (catalog number PF023 from Calbiochem). The substrate used was Mca-PQGL-(3-[2,4-dinitrophenyl]-L-2,3-diaminopropionyl)-AR-OH (denoted as Wammp-5, custom synthesized by AnaSpec, Inc.). The assay buffer consisted of 50 mM Hepes (pH 7.4), 100 mM NaCl, 5 mM CaCl2, and 0.005% Brij-35. […] The enzymatic reactions were initiated by adding the substrate to a final concentration of 20 μM, and mixing 10 times with a pipette. The final DMSO concentration in the assay was 6.0%.
Plots of the inhibitor concentration vs. the percent inhibition were fit to the following equation: y=(a−d)/[1+(x/c)^b]+d, a general sigmoidal curve with Hill slope, a to d. x is the inhibitor concentration under test. y is the percent inhibition. a is the limiting response as x approaches zero. As x increases without bound, y tends toward its limit d. c is the inflection point (IC50) for the curve. That is, y is halfway between the lower and upper asymptotes when x=c. b is the slope factor or Hill coefficient.

MMP-13 = molecular target: T2, MMP-13 (Homo sapiens, UniProt P45452); assay: In-vitro fluorescence assay of MMP-13 activity; assay type: biochemical; conditions: recombinant human catalytic domain of MMP-13; read-out: MMP-13 IC50
T2 construct: made in house

SMILES	IC50 (MMP-2) [nM]	IC50 (MMP-13) [nM]
Cc1c(C(=O)Nc2ccc(-c3ccc(S(=O)(=O)N[C@H](C(=O)O)C(C)C)cc3)cc2)oc2cccc(NC(=O)C(C)C)c12 [Example 50, L-2-{4′-[(4-Isobutyrylamino-3-methyl-benzofuran-2-carbonyl)-amino]-biphenyl-4-sulfonylamino}-3-methyl-butyric acid]	7710	45
CC(C)[C@H](NS(=O)(=O)c1ccc(-c2ccc(NC(=O)c3nc4ccccc4[nH]3)cc2)cc1)C(=O)O [Example 52, L-2-{4′-[(1H-Benzoimidazole-2-carbonyl)-amino]-biphenyl-4-sulfonylamino}-3-methyl-butyric acid]	0.4	0.4
CC(=O)N(C)c1cccc2oc(C(=O)Nc3ccc(-c4ccc(S(=O)(=O)N[C@H](C(=O)O)C(C)C)cc4)cc3)c(C)c12 [Example 55, L-2-(4′-{[4-(Acetyl-methyl-amino)-3-methyl-benzofuran-2-carbonyl]-amino}-biphenyl-4-sulfonylamino)-3-methyl-butyric acid]	2380	20
Cc1c(C(=O)Nc2ccc(-c3ccc(S(=O)(=O)N[C@H](C(=O)O)C(C)C)cc3)cc2)oc2cccc(-c3nn[nH]n3)c12 [Example 56, L-3-Methyl-2-(4′-{[3-methyl-4-(2H-tetrazol-5-yl)-benzofuran-2-carbonyl]-amino}-biphenyl-4-sulfonylamino)-butyric acid]	13300	13
Cc1c(C(=O)Nc2ccc(-c3ccc(S(=O)(=O)N[C@H](C(=O)O)C(C)C)cc3)cc2)oc2cccc(CCC(C)(C)C)c12 [Example 57, L-2-(4′-{[^4-(3,^3-Dimethyl-butyl)-3-methyl-benzofuran-2-carbonyl]-amino}-biphenyl-4-sulfonylamino)-3-methyl-butyric acid]	7000	93
CCc1c(C(=O)Nc2ccc(-c3ccc(S(=O)(=O)N[C@H](C(=O)O)C(C)C)cc3)cc2)oc2ccccc12 [Example 58, L-2-{4′-[(3-Ethyl-benzofuran-2-carbonyl)-amino]-biphenyl-4-sulfonylamino}-3-methyl-butyric acid]	1770	56
Cc1c(C(=O)Nc2ccc(-c3ccc(S(=O)(=O)N[C@H](C(=O)O)C(C)C)cc3)cc2)oc2cccc(NC(=O)OC(C)(C)C)c12 [Example 59, L-2-{4′-[(4-tert-Butoxycarbonylamino-3-methyl-benzofuran-2-carbonyl)-amino]-biphenyl-4-sulfonylamino}-3-methyl-butyric acid]	3270	32
CNc1cccc2oc(C(=O)Nc3ccc(-c4ccc(S(=O)(=O)N[C@H](C(=O)O)C(C)C)cc4)cc3)c(C)c12 [Example 60, L-3-Methyl-2-{4′-[(3-methyl-4-methylamino-benzofuran-2-carbonyl)-amino]-biphenyl-4-sulfonylamino}-butyric acid]	886	8
Cc1c(C(=O)Nc2ccc(-c3ccc(S(=O)(=O)N[C@H](C(=O)O)C(C)C)cc3)cc2)oc2cccc(N)c12 [Example 61, L-2-{4′-[(4-Amino-3-methyl-benzofuran-2-carbonyl)-amino]-biphenyl-4-sulfonylamino}-3-methyl-butyric acid]	323	4.3
Cc1c(C(=O)Nc2ccc(-c3ccc(S(=O)(=O)N[C@H](C(=O)O)C(C)C)cc3)cc2)oc2cccc(N(C)C)c12 [Example 62, L-2-{4′-[(4-Dimethylamino-3-methyl-benzofuran-2-carbonyl)-amino]-biphenyl-4-sulfonylamino}-3-methyl-butyric acid]	5110	6.5
Cc1c(C(=O)Nc2ccc(-c3ccc(S(=O)(=O)N[C@H](C(=O)O)C(C)C)cc3)cc2)oc2cccc(N3CCCC3)c12 [Example 63, L-3-Methyl-2-{4′-[(3-methyl-4-pyrrolidin-1-yl-benzofuran-2-carbonyl)-amino]-biphenyl-4-sulfonylamino}-butyric acid]	5000	28
Cc1c(C(=O)Nc2ccc(-c3ccc(S(=O)(=O)N(C)[C@H](C(=O)O)C(C)C)cc3)cc2)oc2cccc(NS(C)(=O)=O)c12 [Example 64, L-2-({4′-[(4-Methanesulfonylamino-3-methyl-benzofuran-2-carbonyl)-amino]-biphenyl-4-sulfonyl}-methyl-amino)-3-methyl-butyric acid]	6940	63
Cc1c(C(=O)Nc2ccc(-c3ccc(S(=O)(=O)N[C@H](C(=O)O)C(C)O)cc3)cc2)oc2cccc(NS(C)(=O)=O)c12 (stereo partly drawn) [Example 65, L-3-Hydroxy-2-{4′-[(4-methanesulfonylamino-3-methyl-benzofuran-2-carbonyl)-amino]-biphenyl-4-sulfonylamino}-butyric acid]	2470	10.9
Cc1c(C(=O)Nc2ccc(-c3ccc(S(=O)(=O)N[C@H](C(=O)O)C(C)C)cc3)cc2)oc2cccc(NC(=O)C(F)(F)F)c12 [Example 67, L-3-Methyl-2-(4′-{[3-methyl-4-(2,2,2-trifluoro-acetylamino)-benzofuran-2-carbonyl]-amino}-biphenyl-4-sulfonylamino)-butyric acid]	5750	20
CCS(=O)(=O)Nc1cccc2oc(C(=O)Nc3ccc(-c4ccc(S(=O)(=O)N[C@H](C(=O)O)C(C)C)cc4)cc3)c(C)c12 [Example 68, L-2-{4′-[(4-Ethanesulfonylamino-3-methyl-benzofuran-2-carbonyl)-amino]-biphenyl-4-sulfonylamino}-3-methyl-butyric acid]	1650	12
Cc1c(C(=O)Nc2ccc(-c3ccc(S(=O)(=O)N[C@H](C(=O)O)C(C)C)cc3)cc2)oc2cccc(NS(=O)(=O)C(C)C)c12 [Example 69, L-3-Methyl-2-(4′-{[3-methyl-4-(propane-2-sulfonylamino)-benzofuran-2-carbonyl]-amino}-biphenyl-4-sulfonylamino)-butyric acid]	2340	16
CCS(=O)(=O)N(C)c1cccc2oc(C(=O)Nc3ccc(-c4ccc(S(=O)(=O)N[C@H](C(=O)O)C(C)C)cc4)cc3)c(C)c12 [Example 70, L-2-(4′-{[4-(Ethanesulfonyl-methyl-amino)-3-methyl-benzofuran-2-carbonyl]-amino}-biphenyl-4-sulfonylamino)-3-methyl-butyric acid]	3470	14
Cc1c(C(=O)Nc2ccc(-c3ccc(S(=O)(=O)N[C@H](C(=O)O)C(C)C)cc3)cc2)oc2cccc(NS(=O)(=O)c3ccccc3)c12 [Example 71, L-2-{4′-[(4-Benzenesulfonylamino-3-methyl-benzofuran-2-carbonyl)-amino]-biphenyl-4-sulfonylamino}-3-methyl-butyric acid]	6020	8.1
Cc1c(C(=O)Nc2ccc(-c3ccc(S(=O)(=O)N[C@H](C(=O)O)C(C)C)cc3)cc2)oc2cccc(NS(=O)(=O)c3cccs3)c12 [Example 72, L-3-Methyl-2-(4′-{[3-methyl-4-(thiophene-2-sulfonylamino)-benzofuran-2-carbonyl]-amino}-biphenyl-4-sulfonylamino)-butyric acid]	3980	8.5
Cc1c(C(=O)Nc2ccc(-c3ccc(S(=O)(=O)N[C@H](C(=O)O)C(C)C)cc3)cc2)oc2cccc(N3CCCS3(=O)=O)c12 [Example 73, L-2-(4′-{[4-(1,1-Dioxo-1λ^6-isothiazolidin-2-yl)-3-methyl-benzofuran-2-carbonyl]-amino}-biphenyl-4-sulfonylamino)-3-methyl-butyric acid]	4770	11.9
CC(C)[C@H](NS(=O)(=O)c1ccc(-c2ccc(NC(=O)c3cc4cc(Br)ccc4o3)cc2)cc1)C(=O)O [Example 84, N-[(4′-{[(5-Bromo-1-benzofuran-2-yl)carbonyl]amino}-1,1′-biphenyl-4-yl)sulfonyl]-L-valine]	0.9	0.6
CCc1ccc2oc(C(=O)Nc3ccc(-c4ccc(S(=O)(=O)N[C@H](C(=O)O)C(C)C)cc4)cc3)c(C)c2c1OC [Example 86, N-[(4′-{[(5-Ethyl-4-methoxy-3-methyl-1-benzofuran-2-yl)carbonyl]amino}-1,1′-biphenyl-4-yl)sulfonyl]-L-valine]	2500	3.8
CCc1cccc2oc(C(=O)Nc3ccc(-c4ccc(S(=O)(=O)N[C@H](C(=O)O)C(C)C)cc4)cc3)c(C)c12 [Example 87, N-[(4′-{[(4-Ethyl-3-methyl-1-benzofuran-2-yl)carbonyl]amino}-1,1′-biphenyl-4-yl)sulfonyl]-L-valine]	1410	2.3
CCc1ccc2oc(C(=O)Nc3ccc(-c4ccc(S(=O)(=O)N[C@H](C(=O)O)C(C)C)cc4)cc3)c(C)c2c1OC(C)C [Example 88, N-[(4′-{[(5-Ethyl-4-isopropoxy-3-methyl-1-benzofuran-2-yl)carbonyl]amino}-1,1′-biphenyl-4-yl)sulfonyl]-L-valine]	7000	27
CCc1ccc2oc(C(=O)Nc3ccc(-c4ccc(S(=O)(=O)N[C@H](C(=O)O)C(C)C)cc4)cc3)c(C)c2c1OCc1ccccc1 [Example 89, N-{[4′-({[4-(Benzyloxy)-5-ethyl-3-methyl-1-benzofuran-2-yl]carbonyl}amino)-1,1′-biphenyl-4-yl]sulfonyl}-L-valine]	4340	67

Reference: patent US7420001B2 (Wyeth, priority 2003, dated 2008)
